In test [1] the test system is Kluyveromyces marxianus. Description: Antifungal activity against Candida kefyr ATCC 46764 at 0.5 ug/ml after 14 to 18 hrs. It counts as functional. The following applies: read-out: IZ.
The test system of test [2] is Kluyveromyces marxianus. Description: Antifungal activity against Candida kefyr ATCC 46764 at 3 ug/ml after 14 to 18 hrs. Format: functional. The following applies: read-out: IZ.
In test [3] the test system is Kluyveromyces marxianus. In words: Antifungal activity against Candida kefyr ATCC 46764 at 1.5 ug/ml after 14 to 18 hrs. Format: functional. Particulars: read-out: IZ.
The species entered for test [4] is Homo sapiens. Description: Effect on […] level in plasma of transplant patient by MVista microbiological assay. It counts as functional.
Test [5] deals with Kluyveromyces marxianus. Description: Antifungal activity against Candida kefyr ATCC 46764 after 14 to 18 hrs. Format: functional, organism-based.

SMILES strings stand for the structures. Activity calls are given as the source filed them. The rule behind the calls is not given here.

As for `C/C=C/C[C@@H](C)[C@@H](O)[C@H]1C(=O)N[C@@H](CC)C(=O)N(C)CC(=O)N(C)[C@@H](CC(C)C)C(=O)N[C@@H](C(C)C)C(=O)N(C)[C@@H](CC(C)C)C(=O)N[C@@H](C)C(=O)N[C@H](C)C(=O)N(C)[C@@H](CC(C)C)C(=O)N(C)[C@@H](CC(C)C)C(=O)N(C)[C@@H](C(C)C)C(=O)N1C` [CYCLOSPORINE], the zone of inhibition at 0.5 µg/mL in test [1] was 15.5 mm. In addition, the zone of inhibition at 3 µg/mL in test [2] is 23.3 mm. Besides, in test [3], the zone of inhibition at 1.5 µg/mL was found to be 20.5 mm.

For the compound `CC[C@@H]([C@H](C)O)n1ncn(-c2ccc(N3CCN(c4ccc(OC[C@@H]5CO[C@@](Cn6cncn6)(c6ccc(F)cc6F)C5)cc4)CC3)cc2)c1=O` [POSACONAZOLE], the zone of inhibition at 0.5 µg/mL in test [1] came to 16.5 mm. In addition, in test [2], the zone of inhibition at 3 µg/mL was found to be 23.2 mm. Besides, the zone of inhibition at 1.5 µg/mL in test [3] is 20.6 mm.

With `CO[C@H]1C[C@@H]2CC[C@@H](C)[C@@](O)(O2)C(=O)C(=O)N2CCCC[C@H]2C(=O)O[C@H]([C@H](C)C[C@@H]2CC[C@@H](O)[C@H](OC)C2)CC(=O)[C@H](C)/C=C(\C)[C@@H](O)[C@@H](OC)C(=O)[C@H](C)C[C@H](C)/C=C/C=C/C=C/1C` [SIROLIMUS], in test [4], the Activity was 7.1 ng/mL.

As to `C=CC[C@@H]1/C=C(\C)C[C@H](C)C[C@H](OC)[C@H]2O[C@@](O)(C(=O)C(=O)N3CCCC[C@H]3C(=O)O[C@H](/C(C)=C/[C@@H]3CC[C@@H](O)[C@H](OC)C3)[C@H](C)[C@@H](O)CC1=O)[C@H](C)C[C@@H]2OC` [TACROLIMUS ANHYDROUS], the result in test [5] was inactive. Further, the Activity in test [4] stood at 4.2 ng/mL.

(Values after ChEMBL document CHEMBL1153557, “Effect of calcineurin inhibitors on posaconazole blood levels as measured by the MVista microbiological assay” (Antimicrob Agents Chemother, 2008).)
